Experimental data taken from patent publication US11667606B2, “Thyromimetics” (Autobahn Therapeutics, Inc., priority 2019, dated 2023).
Each block holds one compound with its values, some of them ahead of it.

How the values were obtained:
[1] = target: T1, TRα (Homo sapiens, UniProt P10827); assay: Thyroid-hormone reporter-gene assay, TRα (Gal4 DBD hybrid, luciferase, HEK293); type: cell-based; settings: reporter cells derived from HEK293, 24 hr incubation, luciferase readout
T1 construct: expressed in transfected cells; host or cells: HEK293
T1 sequence (P10827 128-410 isoform P10827-2 limits assumed): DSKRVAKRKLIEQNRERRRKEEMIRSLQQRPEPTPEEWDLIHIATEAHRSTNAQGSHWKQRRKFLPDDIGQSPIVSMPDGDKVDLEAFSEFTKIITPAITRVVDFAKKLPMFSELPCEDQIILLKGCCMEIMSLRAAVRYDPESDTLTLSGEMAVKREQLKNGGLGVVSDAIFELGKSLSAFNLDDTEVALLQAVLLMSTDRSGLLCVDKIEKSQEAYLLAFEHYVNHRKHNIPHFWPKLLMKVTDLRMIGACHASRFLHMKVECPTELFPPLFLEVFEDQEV
Experimental: (§1) Compounds were tested for thyroid-hormone receptor activity using TR reporter-gene assays. Reporter cells used in the assays express a TR-receptor hybrid (either TRα or TRβ) in which the native N-terminal DNA binding domain (DBD) has been replaced with that of the yeast Gal4 DBD. The reporter gene, firefly luciferase, is functionally linked to the Gal4 upstream activation sequence (UAS). Both cell lines were derived from human embryonic kidney (HEK293).
(§2) A suspension of reporter cells was prepared in cell recovery medium containing 10% charcoal-stripped FBS, and dispensed into assay plates. The plates were pre-incubated for 6 hours in a cell culture incubator (37° C./5% CO2/85% humidity).
(§3) These intermediate stocks were subsequently diluted directly into compound screening medium containing 10% charcoal-stripped FBS to generate “2×-concentration” treatment media (containing 0.2, 0.4 or 0.8% DMSO).
(§4) At the end of the pre-incubation period, culture media were discarded from the assay plates, and all wells received 100 μl of compound screening medium. 100 μl of each of the previously prepared “2×-concentration” treatment media were dispensed into duplicate assay wells, thereby achieving the desired final treatment concentrations. The final concentration of DMSO in all assay wells was 0.1, 0.2 or 0.4%. Assay plates were incubated for 24 hr in a cell culture incubator (37° C./5% CO2/85% humidity).
(§5) At the 24 h assay endpoint, treatment media were discarded and […] of luciferase detection reagent was added. Relative luminometer units (RLUs) were quantified from each assay well.

[2] = target: T2, TRβ (Homo sapiens, UniProt P10828); assay: Thyroid-hormone reporter-gene assay, TRβ (Gal4 DBD hybrid, luciferase, HEK293); type: cell-based; settings: for T3-SI, selectivity index (SI) calculated as EC50 (TRα)/EC50 (TRβ): TRβ over TRα selectivity from reporter-gene EC50 values; for EC50: reporter cells derived from HEK293, 24 hr incubation, luciferase readout
T2 construct: expressed in transfected cells; host or cells: HEK293
T2 sequence (P10828 217-461 limits assumed): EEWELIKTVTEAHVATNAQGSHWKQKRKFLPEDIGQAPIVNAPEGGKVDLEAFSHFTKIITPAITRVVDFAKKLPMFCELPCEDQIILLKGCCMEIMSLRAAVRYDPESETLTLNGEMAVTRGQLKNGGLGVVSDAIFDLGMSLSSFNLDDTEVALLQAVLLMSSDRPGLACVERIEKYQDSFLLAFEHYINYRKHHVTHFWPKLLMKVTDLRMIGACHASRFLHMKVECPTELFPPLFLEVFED
Experimental: as §1, §2, §3, §4, §5

Compound: O=C(O)COc1cc(Cl)c(Cc2ccc(O)c(Cc3ccc(Cl)cc3)c2)c(Cl)c1 [Compound 90, 2-(3,5-dichloro-4-(3-(4-chlorobenzyl)-4-hydroxybenzyl)phenoxy)acetic Acid]
EC50 [1]: > 1 µM
T3-SI, selectivity index (SI) calculated as EC50 (TRα)/EC50 (TRβ) [2]: ++ (3X < T3-SI ≤ 30X)
EC50 [2]: > 1 µM

Compound: O=C(O)COc1cc(Cl)c(Cc2ccc(O)c(Cc3ccsc3)c2)c(Cl)c1 [Compound 121, 2-(3,5-dichloro-4-(4-hydroxy-3-(thiophen-3-ylmethyl)benzyl)phenoxy) acetic Acid]
EC50 [1]: > 1 µM
T3-SI, selectivity index (SI) calculated as EC50 (TRα)/EC50 (TRβ) [2]: ++ (3X < T3-SI ≤ 30X)
EC50 [2]: 0.1 to 1 µM

Compound: O=C(O)COc1cc(Cl)c(Cc2ccc(O)c(-c3cccc(CC(F)(F)F)c3)c2)c(Cl)c1 [Compound 26, 2-(3,5-dichloro-4-((6-hydroxy-3′-(2,2,2-trifluoroethyl)-[1,1′-biphenyl]-3-yl)methyl)phenoxy)acetic Acid]
EC50 [1]: > 1 µM
T3-SI, selectivity index (SI) calculated as EC50 (TRα)/EC50 (TRβ) [2]: +++ (T3-SI > 30X)
EC50 [2]: 0.1 to 1 µM

Compound: O=C(O)COc1cc(Cl)c(Cc2ccc(O)c(-c3ccco3)c2)c(Cl)c1 [Compound 38, 2-(3,5-dichloro-4-(3-(furan-2-yl)-4-hydroxybenzyl)phenoxy)acetic acid]
EC50 [1]: > 1 µM
T3-SI, selectivity index (SI) calculated as EC50 (TRα)/EC50 (TRβ) [2]: ++ (3X < T3-SI ≤ 30X)
EC50 [2]: > 1 µM

Compound: CCC(c1ccc(F)cc1)c1cc(Cc2c(Cl)cc(OCC(=O)O)cc2Cl)ccc1O (centres unmarked) [Compound 98, 2-(3,5-dichloro-4-(3-(1-(4-fluorophenyl)propyl)-4-hydroxybenzyl)phenoxy)acetic Acid]
EC50 [1]: 0.1 to 1 µM
T3-SI, selectivity index (SI) calculated as EC50 (TRα)/EC50 (TRβ) [2]: ++ (3X < T3-SI ≤ 30X)
EC50 [2]: 0.01 to 0.1 µM

Compound: C=Cc1cccc(-c2cc(Cc3c(Cl)cc(OCC(=O)O)cc3Cl)ccc2O)c1 [Compound 21, 2-(3,5-dichloro-4-((6-hydroxy-3′-vinyl-[1,1′-biphenyl]-3-yl)methyl)phenoxy)acetic Acid]
EC50 [1]: > 1 µM
T3-SI, selectivity index (SI) calculated as EC50 (TRα)/EC50 (TRβ) [2]: ++ (3X < T3-SI ≤ 30X)
EC50 [2]: 0.1 to 1 µM

Compound: C=C(C)c1cccc(-c2cc(Cc3c(Cl)cc(OCC(=O)O)cc3Cl)ccc2O)c1 [Compound 22, 2-(3,5-dichloro-4-((6-hydroxy-3′-(prop-1-en-2-yl)-[1,1′-biphenyl]-3-yl)methyl)phenoxy)acetic Acid]
EC50 [1]: > 1 µM
EC50 [2]: > 1 µM

Compound: O=C(O)COc1cc(Cl)c(Cc2ccc(O)c(-c3cc(OC(F)F)ccc3F)c2)c(Cl)c1 [Compound 52, 2-(3,5-dichloro-4-((5′-(difluoromethoxy)-2′-fluoro-6-hydroxy-[1,1′-biphenyl]-3-yl)methyl)phenoxy)acetic Acid]
EC50 [1]: 0.1 to 1 µM
T3-SI, selectivity index (SI) calculated as EC50 (TRα)/EC50 (TRβ) [2]: ++ (3X < T3-SI ≤ 30X)
EC50 [2]: 0.01 to 0.1 µM

Compound: N#Cc1cccc(-c2cc(Cc3c(Cl)cc(OCC(=O)O)cc3Cl)ccc2O)c1 [Compound 19, 2-(3,5-dichloro-4-((3′-cyano-6-hydroxy-[1,1′-biphenyl]-3-yl)methyl)phenoxy)acetic Acid]
EC50 [1]: 0.1 to 1 µM
T3-SI, selectivity index (SI) calculated as EC50 (TRα)/EC50 (TRβ) [2]: ++ (3X < T3-SI ≤ 30X)
EC50 [2]: 0.01 to 0.1 µM

Compound: COc1cccc(-c2cc(Cc3c(Cl)cc(OCC(=O)O)cc3Cl)ccc2O)c1 [Compound 7, 2-(3,5-dichloro-4-((6-hydroxy-3′-methoxy-[1,1′-biphenyl]-3-yl)methyl)phenoxy)acetic Acid]
EC50 [1]: > 1 µM
T3-SI, selectivity index (SI) calculated as EC50 (TRα)/EC50 (TRβ) [2]: ++ (3X < T3-SI ≤ 30X)
EC50 [2]: > 1 µM

Compound: CCc1ccc(F)c(-c2cc(Cc3c(Cl)cc(OCC(=O)O)cc3Cl)ccc2O)c1 [Compound 51, 2-(3,5-dichloro-4-((5′-ethyl-2′-fluoro-6-hydroxy-[1,1′-biphenyl]-3-yl)methyl)phenoxy)acetic Acid]
EC50 [1]: > 1 µM
T3-SI, selectivity index (SI) calculated as EC50 (TRα)/EC50 (TRβ) [2]: ++ (3X < T3-SI ≤ 30X)
EC50 [2]: > 1 µM

Next, values leading:

EC50 [1]: > 1 µM
T3-SI, selectivity index (SI) calculated as EC50 (TRα)/EC50 (TRβ) [2]: ++ (3X < T3-SI ≤ 30X)
EC50 [2]: 0.1 to 1 µM
Compound: O=C(O)COc1cc(Cl)c(Cc2ccc(O)c(-c3ccsc3)c2)c(Cl)c1 [Compound 42, 2-(3,5-dichloro-4-(4-hydroxy-3-(thiophen-3-yl)benzyl)phenoxy)acetic acid]

EC50 [1]: > 1 µM
T3-SI, selectivity index (SI) calculated as EC50 (TRα)/EC50 (TRβ) [2]: +++ (T3-SI > 30X)
EC50 [2]: 0.1 to 1 µM
Compound: O=C(O)COc1cc(Cl)c(Cc2ccc(O)c(-c3cccc(OC(F)(F)F)c3)c2)c(Cl)c1 [Compound 12, 2-(3,5-dichloro-4-((6-hydroxy-3′-(trifluoromethoxy)-[1,1′-biphenyl]-3-yl)methyl)phenoxy)acetic Acid]

EC50 [1]: 0.1 to 1 µM
T3-SI, selectivity index (SI) calculated as EC50 (TRα)/EC50 (TRβ) [2]: ++ (3X < T3-SI ≤ 30X)
EC50 [2]: 0.01 to 0.1 µM
Compound: Cc1cc(OCC(=O)O)cc(Cl)c1Cc1ccc(O)c(Cc2ccc(F)cc2)c1 [Compound 115, 2-(3-chloro-4-(3-(4-fluorobenzyl)-4-hydroxybenzyl)-5-methylphenoxy) acetic Acid]

EC50 [1]: > 1 µM
T3-SI, selectivity index (SI) calculated as EC50 (TRα)/EC50 (TRβ) [2]: ++ (3X < T3-SI ≤ 30X)
EC50 [2]: 0.1 to 1 µM
Compound: O=C(O)COc1cc(Cl)c(Cc2ccc(O)c(-c3csc(Cl)c3)c2)c(Cl)c1 [Compound 43, 2-(3,5-dichloro-4-(3-(5-chlorothiophen-3-yl)-4-hydroxybenzyl)phenoxy) acetic Acid]

EC50 [1]: > 1 µM
T3-SI, selectivity index (SI) calculated as EC50 (TRα)/EC50 (TRβ) [2]: ++ (3X < T3-SI ≤ 30X)
EC50 [2]: 0.1 to 1 µM
Compound: O=C(COc1cc(Cl)c(Cc2ccc(O)c(-c3cccc(OC(F)F)c3)c2)c(Cl)c1)N1CC1 [Compound 138, 1-(aziridin-1-yl)-2-(3,5-dichloro-4-((3′-(difluoromethoxy)-6-hydroxy-[1,1′-biphenyl]-3-yl)methyl)phenoxy)ethan-1-one]

EC50 [1]: > 1 µM
T3-SI, selectivity index (SI) calculated as EC50 (TRα)/EC50 (TRβ) [2]: ++ (3X < T3-SI ≤ 30X)
EC50 [2]: > 1 µM
Compound: O=C(O)COc1cc(Cl)c(Cc2ccc(O)c(C3CCc4cc(F)ccc43)c2)c(Cl)c1 (centres unmarked) [Compound 113, 2-(3,5-dichloro-4-(3-(5-fluoro-2,3-dihydro-1H-inden-1-yl)-4-hydroxybenzyl)phenoxy)acetic Acid]

EC50 [1]: 0.1 to 1 µM
T3-SI, selectivity index (SI) calculated as EC50 (TRα)/EC50 (TRβ) [2]: ++ (3X < T3-SI ≤ 30X)
EC50 [2]: 0.1 to 1 µM
Compound: O=C(O)COc1cc(Cl)c(Cc2ccc(O)c(Cc3ccc(F)cc3F)c2)c(Cl)c1 [Compound 88, 2-(3,5-dichloro-4-(3-(2,4-difluorobenzyl)-4-hydroxybenzyl)phenoxy)acetic Acid]

EC50 [1]: > 1 µM
T3-SI, selectivity index (SI) calculated as EC50 (TRα)/EC50 (TRβ) [2]: ++ (3X < T3-SI ≤ 30X)
EC50 [2]: 0.1 to 1 µM
Compound: O=C(O)COc1cc(Cl)c(Cc2ccc(O)c(-c3cccs3)c2)c(Cl)c1 [Compound 34, 2-(3,5-dichloro-4-(4-hydroxy-3-(thiophen-2-yl)benzyl)phenoxy)acetic acid]

EC50 [1]: > 1 µM
T3-SI, selectivity index (SI) calculated as EC50 (TRα)/EC50 (TRβ) [2]: +++ (T3-SI > 30X)
EC50 [2]: 0.1 to 1 µM
Compound: CCCc1cccc(-c2cc(Cc3c(Cl)cc(OCC(=O)O)cc3Cl)ccc2O)c1 [Compound 16, 2-(3,5-dichloro-4-((6-hydroxy-3′-propyl-[1,1′-biphenyl]-3-yl)methyl)phenoxy)acetic Acid]

EC50 [1]: 0.1 to 1 µM
T3-SI, selectivity index (SI) calculated as EC50 (TRα)/EC50 (TRβ) [2]: ++ (3X < T3-SI ≤ 30X)
EC50 [2]: 0.01 to 0.1 µM
Compound: CC(C)C(c1ccc(F)cc1)c1cc(Cc2c(Cl)cc(OCC(=O)O)cc2Cl)ccc1O (centres unmarked) [Compound 104, 2-(3,5-dichloro-4-(3-(1-(4-fluorophenyl)-2-methylpropyl)-4-hydroxybenzyl)phenoxy)acetic Acid]

EC50 [1]: 0.1 to 1 µM
T3-SI, selectivity index (SI) calculated as EC50 (TRα)/EC50 (TRβ) [2]: ++ (3X < T3-SI ≤ 30X)
EC50 [2]: 0.01 to 0.1 µM
Compound: Cc1cc(OCC(=O)O)cc(Br)c1Cc1ccc(O)c(-c2cccc(OC(F)F)c2)c1 [Compound 66, 2-(3-bromo-4-((3′-(difluoromethoxy)-6-hydroxy-[1,1′-biphenyl]-3-yl)methyl)-5-methylphenoxy)acetic Acid]

EC50 [1]: > 1 µM
T3-SI, selectivity index (SI) calculated as EC50 (TRα)/EC50 (TRβ) [2]: +++ (T3-SI > 30X)
EC50 [2]: 0.1 to 1 µM
Compound: COCC(c1ccc(F)cc1)c1cc(Cc2c(Cl)cc(OCC(=O)O)cc2Cl)ccc1O (centres unmarked) [Compound 129, 2-(3,5-dichloro-4-(3-(1-(4-fluorophenyl)-2-methoxyethyl)-4-hydroxybenzyl)phenoxy)acetic Acid]
